Measured values taken from patent EP1022029A1, “NOOTROPIC AGENT” (priority 1997, dated 1999).
Like-named read-outs stand apart in the source and are kept apart here.

Tests used:
[1] = test system: excitatory postsynaptic potential in the brain; assay: Excitatory postsynaptic potential (PS) in the brain in vivo, hippocampal granular cell layer; design: species or system mice
Method: A group of mice were provided. The head of each mouse was fixed, and electrodes were inserted into the granular cell layer of the hippocampal region. PS was recorded. Nefiracetam was intramuscularly injected (7.5 mg/kg). […] This effect was confirmed even after 960 minutes. Thus, the effect obtained in vitro was also confirmed in an in vivo experiment […].

α4β2 receptor = biological target: T1, α4β2 receptor (Rattus norvegicus, UniProt P09483+P12390); assay: ACh-evoked currents in α4β2 receptors expressed in Xenopus oocytes (two-electrode voltage clamp); type: cell-based; conditions: for normalized response (%): nef(+), n=5
T1 construct: expressed in transfected cells; host or cells: Xenopus oocytes injected with in vitro transcribed mRNA
Method: Two-electrode voltage-clamp technique was used to record expression α4β2 or α7 receptors in oocytes. ACh (100 µM) was applied to a single oocyte in the presence or absence of α-BuTX (50 nM) or MCA (3 µM). The holding voltage was -30 or -60 mV for α4β2-nAChR or α7-nAChR, respectively. Downward directions correspond to inward currents.
mRNAs for the rat α4β2 receptor and α7 receptor, GLUR1, 2, 3 receptors, and NP152 and NP153 were constructed as described previously. Xenopus oocytes were manually separated from the ovary, and subjected to treatment with collagenase (0.5 mg/ml). Thereafter, the treated oocytes were incubated overnight in Barth's solution (in mM, 88 NaCl, 1 KCl, 2.4 NaHCO3, 0.82 MgSO4, 0.33 […], 0.41 CaCl2, and 7.5 Tris; pH 7.6). The oocytes were injected with the α4β2 or α7 receptor mRNA and incubated at 18°C. In some cases, NP152 and NP153 were co-expressed with the α4β2 and α7 receptors. The injected oocytes were incubated and transferred to a recording chamber 2-7 days after incubation and continuously superfused at room temperature (20-22°C) with a standard frog Ringer's solution [in mM: 115 NaCl, 2 KCl, 1.8 CaCl2, 5 HEPES; pH 7.0]. To remove the effect of endogenous muscarinic ACh receptor, 1 µM atropine was added to the extracellular solution. ACh-evoked currents were recorded by use of two-electrode voltage clamp techniques and an amplifier (GeneClamp-500, Axon Instrument, Inc. USA). The currents were analyzed on a microcomputer by pClamp software (Axon Instrument, Inc.; Version 6). From the results, an assessment was made as to whether nefiracetam actually acts on the nACh receptors.

[2] = test system: mutant ACh receptors (mγΔPKA/Ser353,354m δΔPKA/Ser361,362) lacking PKA phosphorylation sites; assay: ACh-evoked currents in mutant ACh receptors lacking PKA phosphorylation sites expressed in Xenopus oocytes; type: cell-based; conditions: nefiracetam 0.01 µM; 30 min after treatment; n=7
Method: ACh (100 µM) was applied to each of an oocyte expressing normal ACh receptors and an oocyte expressing mutant ACh receptors (mγΔPKA/Ser353, 354m δΔPKA/Ser361,362) lacking PKA phosphorylation sites, before and after treatment with nefiracetam (0.01 µM). The oocytes expressing normal ACh receptors were treated with H-89 (1 µM) from 15 min before recording, or with pertussis toxin (0.1 µg/ml) for 24h prior to experiments. The currents illustrated in Table 16 were recorded before and 30 min after treatment with nefiracetam. The holding voltage was - 30 mV. In Table 16, each point represents the average obtained from seven oocytes.
To further examine whether the current depression by nefiracetam is due to PKA phosphorylation of the receptors or not, mutant ACh receptors lacking potent PKA phosphorylation sites on the γ and δ subunits (mγΔ PKA/Ser353,354m δΔPKA/Ser361,362) were expressed in Xenopus oocytes.

[3] = test system: field excitatory postsynaptic potentials (fEPSP); assay: Field excitatory postsynaptic potentials (fEPSP slope) in rat hippocampal slices, CA1; type: cell-based; conditions: nefiracetam 1 µM applied for 10 minutes
Method: Long-lasting facilitation of hippocampal synaptic transmission induced by nefiracetam was investigated. The field excitatory postsynaptic potentials (fEPSP) were recorded in the pyramidal cell layer of the CA1 region by electrical stimulation to the Schaeffer collateral pathway in rat hippocampla slices. Nefiracetam (1 µM) was applied to the hippocampla slices for 10 minutes. After nefiracetam application, fEPSPs were gradually augmented. This effect was observed until 240 minutes had passed since the experiment ended (Table 18-2).
Next, investigation was made regarding whether the above effect exerted by the present drug differs from the onset mechanism for long-term potentiation (LTP) action exerted when tetanic stimulation was used. The following three groups were compared: (group 1) tetanic stimulation alone; (group 2) nefiracetam + tetanic stimulation; (group 3) tetanic stimulation + nefiracetam. As a result, the fEPSPs that had been potentiated by nefiracetam was not potentiated any longer even when subsequent tetanic stimulation was applied. Likewise, the fEPSPs that had been potentiated by tetanic stimulation was not potentiated any longer even after subsequent application of nefiracetam. The amplitudes of potentiation of these two types of fEPSP were the same as the amplitude of tetanic stimulation. […]

[4] = test system: postsynaptic potentials evoked from the hippocampal CA1 region; assay: Postsynaptic potentials recorded in the CA1 pyramidal cell layer of rat hippocampal slices; type: cell-based

T1 sequence (P09483 31-630): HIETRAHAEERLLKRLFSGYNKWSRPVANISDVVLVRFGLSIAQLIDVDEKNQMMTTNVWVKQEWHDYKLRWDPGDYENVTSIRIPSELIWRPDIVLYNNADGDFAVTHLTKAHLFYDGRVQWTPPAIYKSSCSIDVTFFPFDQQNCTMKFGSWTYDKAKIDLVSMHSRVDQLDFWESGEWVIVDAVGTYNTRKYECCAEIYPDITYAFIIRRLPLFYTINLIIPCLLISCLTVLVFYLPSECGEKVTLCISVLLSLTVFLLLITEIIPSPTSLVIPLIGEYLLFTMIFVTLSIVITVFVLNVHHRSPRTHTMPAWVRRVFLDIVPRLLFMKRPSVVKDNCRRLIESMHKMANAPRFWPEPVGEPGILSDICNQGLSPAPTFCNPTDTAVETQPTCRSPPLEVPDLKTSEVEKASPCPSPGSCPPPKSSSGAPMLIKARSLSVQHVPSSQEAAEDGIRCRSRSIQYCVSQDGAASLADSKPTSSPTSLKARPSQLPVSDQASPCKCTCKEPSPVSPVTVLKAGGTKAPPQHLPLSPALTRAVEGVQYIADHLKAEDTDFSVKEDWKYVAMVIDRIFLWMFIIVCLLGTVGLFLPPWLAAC
T1 sequence (P12390 25-500): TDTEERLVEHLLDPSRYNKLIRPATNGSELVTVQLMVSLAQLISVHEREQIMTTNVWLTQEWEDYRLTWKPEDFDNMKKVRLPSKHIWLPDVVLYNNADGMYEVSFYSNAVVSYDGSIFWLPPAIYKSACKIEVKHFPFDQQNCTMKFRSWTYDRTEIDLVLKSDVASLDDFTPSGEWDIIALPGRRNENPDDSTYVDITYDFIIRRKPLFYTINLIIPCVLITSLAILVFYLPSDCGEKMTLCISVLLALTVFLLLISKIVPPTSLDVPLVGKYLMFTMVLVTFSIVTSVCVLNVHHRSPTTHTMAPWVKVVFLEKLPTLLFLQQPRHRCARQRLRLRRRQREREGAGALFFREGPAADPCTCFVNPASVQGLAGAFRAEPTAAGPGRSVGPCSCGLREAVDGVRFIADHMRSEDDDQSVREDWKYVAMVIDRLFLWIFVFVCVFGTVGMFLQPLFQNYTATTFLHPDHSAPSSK

Cc1cccc(C)c1NC(=O)CN1CCCC1=O [nefiracetam, 2-oxo-1-pyrrolidinylacetic acid 2,6-dimethylanilide]
time after which potentiation of the excitatory postsynaptic potential was still confirmed ([1]; 7.5 mg/kg intramuscularly, mice): ≥ 960 min | effect on excitatory postsynaptic potential (PS) in vivo ([1]; administered to animals): significant potentiation | concentration of maximum potentiation of ACh-evoked currents (α4β2 receptor): 0.1 µM | activity at 1 µM (α4β2 receptor; 1 h, nefiracetam 1 µM, 60 minutes after treatment, read-out: ACh-evoked currents potentiated, reaching): 180% | normalized response (%) (α4β2 receptor; ACh 0.1 µM, nefiracetam 1 µM): 0% | normalized response (%) (α4β2 receptor; ACh 1 µM, nefiracetam 1 µM): 2% | normalized response (%) (α4β2 receptor; ACh 10 µM, nefiracetam 1 µM): 36% | normalized response (%) (α4β2 receptor; ACh 100 µM, nefiracetam 1 µM): 66% | normalized response (%) (α4β2 receptor; ACh 1000 µM, nefiracetam 1 µM): 100% | activity at 0.0001 µM (α4β2 receptor; Nefiracetam 0.0001 µM, n = 5 to 8, read-out: % of the original amplitude): 100 ± 15.5% | activity at 0.001 µM (α4β2 receptor; Nefiracetam 0.001 µM, n = 5 to 8, read-out: % of the original amplitude): 150 ± 13.6% | activity at 0.01 µM (α4β2 receptor; Nefiracetam 0.01 µM, n = 5 to 8, read-out: % of the original amplitude): 212 ± 20.5% | activity at 0.1 µM (α4β2 receptor; Nefiracetam 0.1 µM, n = 5 to 8, read-out: % of the original amplitude): 225 ± 18.9% | activity at 1 µM (α4β2 receptor; Nefiracetam 1 µM, n = 5 to 8, read-out: % of the original amplitude): 161 ± 12.6% | activity at 10 µM (α4β2 receptor; Nefiracetam 10 µM, n = 5 to 8, read-out: % of the original amplitude): 156 ± 17.6% | currents potentiated to (α4β2 receptor; in the presence of the inactive PKC inhibitory peptide (NP153; iPKCI)): 169.3% | concentration at which potentiation of ACh-evoked currents was observed (α4β2 receptor; lowest effective concentration): ≥ 0.0001 µM | % of the original amplitude (Ach-evoked current) (α4β2 receptor; treatment as labelled, nefiracetam 1 µM, GF109203X 100 nM, peptides co-expressed, Mean ± SD, n = 6 to 8): 160 ± 5.6% | ACh-evoked currents increased to [2]: 159% | time until which augmentation of fEPSPs was observed [3]: ≥ 240 min | Postsynaptic potential (% of original amplitude) ([4]; Nefiracetam 0.01 µM, GF109203X(100nM), 10 min after treatment, n=5): 50 ± 5% | Postsynaptic potential (% of original amplitude) ([4]; Nefiracetam 0.01 µM, H-89(1µM), 10 min after treatment, n=5): 103 ± 8% | Postsynaptic potential (% of original amplitude) ([4]; Nefiracetam 1 µM, GF109203X(100nM), 10 min after treatment, n=5): 108.8 ± 11.6% | Postsynaptic potential (% of original amplitude) ([4]; Nefiracetam 1 µM, H-89(1µM), 10 min after treatment, n=5): 155 ± 8% | activity at 0.01 µM ([4]; Rattus norvegicus, 10 min, Nefiracetam 0.01 µM, Control (no inhibitor), 10 min after treatment, n=5, read-out: Postsynaptic potential (% of original amplitude)): 85 ± 5% | activity at 1 µM ([4]; Rattus norvegicus, 10 min, Nefiracetam 1 µM, Control (no inhibitor), 10 min after treatment, n=5, read-out: Postsynaptic potential (% of original amplitude)): 143 ± 2% | activity at 1 µM ([4]; Rattus norvegicus, 1 h, 60 minutes after the 1 µM treatment, read-out: magnitude of maximum facilitation of the postsynaptic potentials): ~150% | activity at 0.001 µM ([4]; Rattus norvegicus, nefiracetam 0.001 µM, Mean ± SD, n = 5 to 7, read-out: Postsynaptic potential (% of original amplitude)): 95 ± 6% | activity at 0.01 µM ([4]; Rattus norvegicus, nefiracetam 0.01 µM, Mean ± SD, n = 5 to 7, read-out: Postsynaptic potential (% of original amplitude)): 94 ± 5% | activity at 0.1 µM ([4]; Rattus norvegicus, nefiracetam 0.1 µM, Mean ± SD, n = 5 to 7, read-out: Postsynaptic potential (% of original amplitude)): 111 ± 9% | activity at 1 µM ([4]; Rattus norvegicus, nefiracetam 1 µM, Mean ± SD, n = 5 to 7, read-out: Postsynaptic potential (% of original amplitude)): 156 ± 6% | activity at 10 µM ([4]; Rattus norvegicus, read-out: Postsynaptic potential (% of original amplitude), nefiracetam 10 µM, Mean ± SD, n = 5 to 7): 144 ± 11% | concentrations giving short-term suppression of the postsynaptic potentials ([4]; biphasic effect, lower concentrations): ≤ 0.1 µM
